Activity calls are given as the source filed them. Rule as the data show it, for most assays here: actives have a measured EC50 and inactives only a lower limit.
Experiments:
[1] = Trypanosoma cruzi growth suppression in host cells – NIH3T3 host cells, beta-gal luminescence, confirmation (AID 2044); assay type: functional, cell-based;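 also: intracellular parasites grown in NIH/3T3 mouse fibroblasts as host cells; luminescent beta-galactosidase reporter signal from transgenic T. cruzi replicating inside host cells; inhibitors lower the luminescence signal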
[2] = target: T1, Replicative DNA helicase DnaB (Mycobacterium tuberculosis, UniProt P9WMR3); test: DnaB intein splicing inhibitors, dose response, biochemical, cell-free fluorescence (AID 449749); assay type: functional
T1 sequence (P9WMR3 whole entry): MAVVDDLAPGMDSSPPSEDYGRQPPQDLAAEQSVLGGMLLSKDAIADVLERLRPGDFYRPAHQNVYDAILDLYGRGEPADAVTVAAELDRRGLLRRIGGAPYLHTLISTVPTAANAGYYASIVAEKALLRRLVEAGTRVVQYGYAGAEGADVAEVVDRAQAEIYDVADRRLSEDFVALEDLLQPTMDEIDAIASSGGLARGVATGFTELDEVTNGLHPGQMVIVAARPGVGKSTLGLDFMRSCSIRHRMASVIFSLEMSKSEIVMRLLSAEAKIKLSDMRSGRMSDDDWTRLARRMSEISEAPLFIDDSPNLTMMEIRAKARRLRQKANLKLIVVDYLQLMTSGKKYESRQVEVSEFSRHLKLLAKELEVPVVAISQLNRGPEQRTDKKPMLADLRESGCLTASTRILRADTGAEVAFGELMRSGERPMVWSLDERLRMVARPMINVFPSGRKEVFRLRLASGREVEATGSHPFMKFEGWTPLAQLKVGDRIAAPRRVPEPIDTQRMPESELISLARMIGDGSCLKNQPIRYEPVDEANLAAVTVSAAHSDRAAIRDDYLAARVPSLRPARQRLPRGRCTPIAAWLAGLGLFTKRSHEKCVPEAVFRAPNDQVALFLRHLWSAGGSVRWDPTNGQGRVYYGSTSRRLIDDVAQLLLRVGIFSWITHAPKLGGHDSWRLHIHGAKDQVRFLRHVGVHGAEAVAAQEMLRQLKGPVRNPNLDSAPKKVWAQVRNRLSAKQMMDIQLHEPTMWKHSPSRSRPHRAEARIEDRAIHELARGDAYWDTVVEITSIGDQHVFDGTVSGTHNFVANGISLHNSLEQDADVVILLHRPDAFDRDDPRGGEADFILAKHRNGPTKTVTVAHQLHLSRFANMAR

Protein RecA = target: T2, Protein RecA (Mycobacterium tuberculosis, UniProt P9WHJ3); test: Fluorescence Cell-Free Homogeneous Dose Retest to Identify Inhibitors of RecA-Intein Splicing Activity. [Related pubchem assays (depositor defined):AID2097, AID2223, AID489010, AID492950]; assay type: functional
T2 sequence (P9WHJ3 whole entry): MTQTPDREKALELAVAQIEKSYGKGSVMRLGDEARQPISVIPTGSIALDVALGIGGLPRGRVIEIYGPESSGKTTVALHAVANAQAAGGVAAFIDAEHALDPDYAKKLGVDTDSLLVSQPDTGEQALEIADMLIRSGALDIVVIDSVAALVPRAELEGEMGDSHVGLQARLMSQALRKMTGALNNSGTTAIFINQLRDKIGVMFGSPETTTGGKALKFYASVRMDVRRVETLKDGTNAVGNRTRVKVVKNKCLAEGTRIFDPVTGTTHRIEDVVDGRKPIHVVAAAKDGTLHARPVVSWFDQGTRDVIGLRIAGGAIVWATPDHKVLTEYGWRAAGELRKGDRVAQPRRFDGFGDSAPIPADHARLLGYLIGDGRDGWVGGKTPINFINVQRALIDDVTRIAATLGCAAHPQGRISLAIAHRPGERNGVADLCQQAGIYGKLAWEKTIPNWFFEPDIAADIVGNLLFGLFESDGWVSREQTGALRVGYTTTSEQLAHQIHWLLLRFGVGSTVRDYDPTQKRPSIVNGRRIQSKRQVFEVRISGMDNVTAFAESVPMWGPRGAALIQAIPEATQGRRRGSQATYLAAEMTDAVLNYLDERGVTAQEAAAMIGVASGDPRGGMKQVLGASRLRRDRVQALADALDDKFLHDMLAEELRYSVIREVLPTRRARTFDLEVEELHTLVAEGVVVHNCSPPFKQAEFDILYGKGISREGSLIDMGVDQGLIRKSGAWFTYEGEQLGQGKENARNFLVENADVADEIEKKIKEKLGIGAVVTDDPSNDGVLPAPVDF

[3] = test system: Streptococcus sp. 'group A'; test: Streptococcus pyogenes SK(-)GAS viability under kanamycin – luminescence, BacTiterGlo, confirmation, counter-screen for streptokinase expression inhibitor project, dose response (AID 1900); assay type: functional, organism-based
Streptokinase A = target: T3, Streptokinase A (Streptococcus pyogenes serotype M1, UniProt P10520); test: viability-normalized secreted streptokinase activity reduction – plasminogen activation absorbance, OD405, dose response (AID 1914); assay type: functional, Streptococcus pyogenes M1 GAS;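 also: secreted streptokinase activity via plasminogen activation per viability signal from cell pellet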
T3 sequence (P10520 whole entry): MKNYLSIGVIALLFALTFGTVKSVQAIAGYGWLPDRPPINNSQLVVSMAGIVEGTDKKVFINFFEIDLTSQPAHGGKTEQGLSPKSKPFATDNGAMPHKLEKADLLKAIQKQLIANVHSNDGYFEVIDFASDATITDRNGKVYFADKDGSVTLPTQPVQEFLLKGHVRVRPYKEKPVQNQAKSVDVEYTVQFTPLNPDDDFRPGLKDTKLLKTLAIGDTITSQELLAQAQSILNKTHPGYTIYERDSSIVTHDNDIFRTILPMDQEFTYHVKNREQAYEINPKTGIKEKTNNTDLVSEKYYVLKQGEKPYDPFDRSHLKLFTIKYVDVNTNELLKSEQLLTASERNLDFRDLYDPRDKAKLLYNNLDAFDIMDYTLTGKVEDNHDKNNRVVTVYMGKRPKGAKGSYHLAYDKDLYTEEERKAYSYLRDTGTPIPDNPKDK

Streptococcus = test: GAS UMAA2166 growth inhibition – luminescence, BacTiterGlo, counter-screen for streptokinase expression inhibitor project, dose response (AID 1915); assay type: functional, organism-based;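 also: potency for reduction of bacterial viability or growth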
[4] = NIH3T3 cell viability loss – ATP luminescence, mouse fibroblasts, counter-screen, dose response (AID 2010); assay type: functional, cell-based;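 also: cells exposed to compound for about 90 hours before reading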
Cytochrome P450 1A2 = target: T4, Cytochrome P450 1A2 (Homo sapiens, UniProt P05177);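 also: PubChem cytochrome P450 panel assay, CYP1A2 panel member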
T4 sequence (P05177 whole entry): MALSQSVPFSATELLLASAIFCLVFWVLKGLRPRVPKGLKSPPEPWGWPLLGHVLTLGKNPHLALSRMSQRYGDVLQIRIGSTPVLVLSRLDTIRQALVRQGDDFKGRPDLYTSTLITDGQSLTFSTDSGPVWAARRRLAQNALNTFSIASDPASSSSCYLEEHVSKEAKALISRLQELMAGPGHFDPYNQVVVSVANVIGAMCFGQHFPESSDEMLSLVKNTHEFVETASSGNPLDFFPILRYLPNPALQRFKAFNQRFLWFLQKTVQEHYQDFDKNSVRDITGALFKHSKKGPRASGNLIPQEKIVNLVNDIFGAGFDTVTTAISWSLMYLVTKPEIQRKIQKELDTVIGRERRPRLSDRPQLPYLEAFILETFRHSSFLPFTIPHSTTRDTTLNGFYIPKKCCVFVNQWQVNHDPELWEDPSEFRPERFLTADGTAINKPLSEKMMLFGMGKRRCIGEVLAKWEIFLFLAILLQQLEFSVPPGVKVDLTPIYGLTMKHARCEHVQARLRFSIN

Compound	EC50 [1]	AC50 [2]	EC50 (Protein RecA)	also measured
O=[N+]([O-])C(/C=C(/Cl)[N+](=O)[O-])=C(N1CCCCC1)N1CCCCC1	1.25 µM (active)	14.5 µM (active)	8.34 µM (active)	
COC(=O)CSc1nc2sc3c(c2c(=O)n1C1CCCCC1)CCN(C)C3		> 120 µM (inactive)	31.4 µM (active)	
Cc1cc(Oc2ccc(-c3ccccc3)cc2)nc(N2CCOCC2)n1				EC50 [3]: 49.7 µM (active); EC50 (Streptokinase A): 35.4 µM (active); EC50 (Streptococcus): > 150 µM (not active)
C=C(C)c1cccc(C(C)(C)NC(=O)NC2CCN(Cc3ccccc3)CC2)c1	0.103 µM (active)			EC50 [4]: > 60 µM (not active)
CN1CCN(c2nc(-c3ccccc3)nc(-c3ccc(F)cc3)c2C#N)CC1	1.25 µM (active)			EC50 [4]: > 60 µM (not active)
CCOC(=O)c1cc(-c2ccc(F)cc2)n(CCC(=O)NC2CCN(Cc3ccccc3)CC2)c1C	0.773 µM (active)			EC50 [4]: > 60 µM (not active)
COc1ccc(C2CC(c3ccccc3)=NN2c2ccc(S(N)(=O)=O)cc2)cc1 (stereo not given)	2.83 µM (active)			EC50 [4]: > 60 µM (inconclusive)
COc1ccc(Br)cc1C(=O)Nc1ccc(Cc2ccncc2)cc1	3.4 µM (active)			EC50 [4]: > 60 µM (not active)
CN(C)CCNC(=O)c1cc(Sc2ccc(F)cc2)nc2ccccc12	0.282 µM (active)			EC50 [4]: > 60 µM (not active)
CCOC(=O)c1cc(-c2ccc(OC(F)F)cc2)nc2c1c(=O)[nH]c(=O)n2C				EC50 [3]: 0.458 µM (active); EC50 (Streptococcus): 1.97 µM (active)
CCCC(=O)OCCNc1cc(SCc2ccco2)c2nonc2c1[N+](=O)[O-]		4.88 µM (active)	1.98 µM (active)	
COc1ccc(C2=NN(C(=O)/C=C/c3ccccc3)C(c3ccccc3)C2)c(OC(C)=O)c1 (stereo not given)		> 380 µM (inactive)	53.8 µM (active)	
O=C(O)COc1ccc(OCCNC[C@@H](O)COc2ccccc2)cc1				AC50 (Cytochrome P450 1A2): 39.8 µM (inconclusive)
Nc1nc(-c2ccc(Br)cc2)c(S(=O)(=O)c2ccccc2)s1		4.22 µM (active)	> 380 µM (inactive)	
CCC[C@@H]1C[C@@]1(CCC)C(NC(=O)c1ccco1)c1ccc(Cl)cc1 (stereo not given in full)				AC50 (Cytochrome P450 1A2): 25.1 µM (inconclusive)
CCCc1n[nH]c2c1C(c1cccc(OC)c1)C(C#N)=C(N)O2 (stereo not given)		19.3 µM (active)	9.09 µM (active)	

Compound	EC50 [1]	AC50 [2]	EC50 (Protein RecA)	also measured
Cc1ccc(NC(=S)NC(=O)c2c(-c3ccccc3Cl)noc2C)cc1				AC50 (Cytochrome P450 1A2): 8.91 µM (inconclusive)
CS(=O)(=O)N1CCC2(CC1)CN(c1ccccc1)C2				AC50 (Cytochrome P450 1A2): 20 µM (inconclusive)
CCN1C(=O)C(=NNc2cccc(S(=O)(=O)N3CCOCC3)c2)C(=O)N(CC)C1=S		> 380 µM (inactive)	> 380 µM (inconclusive)	
Cc1cccn2c(CNCC3(c4ccccc4)CCCC3)c(C(=O)N3CCOCC3)nc12		> 380 µM (inactive)	> 380 µM (inactive)	
CCOC(=O)Cc1n[nH]c2c1C(c1ccsc1)C(C#N)=C(N)O2 (stereo not given)		> 380 µM (inactive)	31.3 µM (active)	
CN(N)C(S)=Nc1ccc(Cl)cc1		> 380 µM (inactive)	> 380 µM (inactive)	
CCC(C)Sc1cc(C(F)(F)F)c(C(=O)Nc2ccc(Cl)cc2)cn1 (stereo not given)				EC50 [3]: 4.03 µM (active); EC50 (Streptokinase A): 2.38 µM (active); EC50 (Streptococcus): 7.94 µM (active)
COCCn1c(=O)c(-c2cc(F)cc(F)c2)nc2cnc(Nc3cccc(OC)c3)nc21				AC50 (Cytochrome P450 1A2): 2.51 µM (inconclusive)
COc1ccc2cc(C(=O)/C=C/c3cc(OC)c(O)c(OC)c3)ccc2c1				EC50 [3]: 5.61 µM (active); EC50 (Streptokinase A): > 150 µM (not active); EC50 (Streptococcus): 14.7 µM (active)
CSc1ccc(NC(=O)Nc2cccn(Cc3ccccc3F)c2=O)cc1	4.33 µM (active)			EC50 [4]: > 60 µM (not active)
O=C(/C=C\c1ccc(Cl)cc1)N[C@@]12CCC(=O)[C@@H]3Oc4c(O)ccc5c4[C@@]31CCN(CC1CC1)[C@@H]2C5				AC50 (Cytochrome P450 1A2): 39.8 µM (inconclusive)
Cc1ccc(NC(=O)C2CCCN(C(=O)c3ccc(Cl)cc3)C2)cc1S(=O)(=O)N1CCOCC1 (stereo not given)	26.6 µM (active)			EC50 [4]: > 60 µM (not active)
c1ccc(CCNc2ccccn2)nc1				AC50 (Cytochrome P450 1A2): 5.01 µM (inconclusive)
CCOc1cc(/C=N\NC(=O)OC(C)(C)C)ccc1OC(=O)c1ccco1		12.8 µM (active)	19.8 µM (active)	
OCCNc1nc(Nc2ccc(Br)cc2)nc2ccccc12	0.801 µM (active)			EC50 [4]: > 30 µM (not active)
CCOC(=O)C1=C(C)NC(C)=C(C(=O)OC)[C@@H]1c1cccc([N+](=O)[O-])c1 [(S)-NITRENDIPINE]				AC50 (Cytochrome P450 1A2): 15.8 µM (inconclusive)

Source: ChEMBL document CHEMBL1201862, “PubChem BioAssay data set” (2004)
